Measured values: paper PMC3776224, “Investigation of acyclic uridine amide and 5′-amido nucleoside analogues as potential inhibitors of the Plasmodium falciparum dUTPase^” (Bioorganic & Medicinal Chemistry, 2013)
Where two headings read alike, the source gives them in different places. Each block holds one compound with its values, some of them ahead of it.

Experiments:
recombinant PfdUTPase [1] = target: T1, recombinant PfdUTPase (Plasmodium falciparum, UniProt Q8II92); settings: previously reported; cited from earlier work
T1 construct: made in house; host or cells: E. coli BL21 (DE3)
T1 sequence (Q8II92 1-173): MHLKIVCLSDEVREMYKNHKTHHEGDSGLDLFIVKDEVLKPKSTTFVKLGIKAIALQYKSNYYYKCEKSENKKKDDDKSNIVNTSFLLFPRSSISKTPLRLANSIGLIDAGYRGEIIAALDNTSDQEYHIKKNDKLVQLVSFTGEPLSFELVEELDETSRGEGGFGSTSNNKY

[2] = tested on: P. falciparum K1, a chloroquine and pyrimethamine resistant strain; settings: mean of two independent assays, previously reported, read-out: In vitro assays EC50 P.f.; cited from earlier work
[3] = tested on: L6 cells (rat skeletal myoblast cells); settings: previously reported, cited from earlier work; for EC50: cytotoxicity on rat L6 myoblasts, mean of two independent assays, read-out: In vitro assays EC50 L6 cells
[4] = target: T2, human dUTPase (HsdUTPase) (Homo sapiens, UniProt P33316); settings: previously reported; read-out: Enzyme assay Ki HsdUTPase; cited from earlier work
T2 construct: made in house; host or cells: E. coli BL21 (DE3)
T2 sequence (P33316 112-252 limits assumed): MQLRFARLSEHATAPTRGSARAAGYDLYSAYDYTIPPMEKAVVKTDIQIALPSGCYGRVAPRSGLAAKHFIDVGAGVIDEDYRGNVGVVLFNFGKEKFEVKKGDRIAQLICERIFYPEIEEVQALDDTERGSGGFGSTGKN

recombinant PfdUTPase [5] = target: T1, recombinant PfdUTPase; assay: PfdUTPase enzyme inhibition assay (dUTP hydrolysis, Ki); type: biochemical; settings: for Ki: read-out: Enzyme assay, Ki P.fal
Description: (§1) Biological activity was evaluated by testing all compounds against the recombinant PfdUTPase and human dUTPase (HsdUTPase) in order to determine inhibition constants and selectivity.
Both recombinant P. falciparum and human dUTPases were expressed in E. coli BL21 (DE3) cells which had been transformed with the pET11Pfdut and pET3Hudut (kindly provided by P.O. Nyman, Lund University, Sweden) expression vectors, respectively. For dUTPase purification, the same procedure was used for both the human and the Plasmodium enzymes. Cell pellets from a 2.8 L IPTG-induced culture were resuspended in 70 mL of buffer A (20 mM MES, 50 mM NaCl, 1 mM DTT, pH 5.5) containing a protease inhibitor cocktail. The cells were lysed by sonication, and the cell extract was cleared by centrifugation at 14,000 rpm for 30 min. The supernatant was loaded onto a 40 mL phosphocellulose (Whatman P-11) column at 4 °C and eluted with a 50 mM to 1 M NaCl gradient in buffer A. Protein was further purified by gel filtration chromatography on a Superdex 200 HA 10/30 column at 4 °C. Pooled fractions were concentrated by centrifugation at 4 °C and desalted using a PD-10 column. The enzyme was stored in 10 mM bicine and 5 mM MgCl2, pH 8 at −80 °C.
(§2) Nucleotide hydrolysis was monitored by mixing enzyme and substrate with a rapid kinetic accessory (Hi-Tech Scientific) attached to a spectrophotometer (Cary 50) and connected to a computer for data acquisition and storage as described previously.[17] Protons, released through the hydrolysis of nucleotides, were neutralized by a pH indicator in weak buffered medium with similar pKa and monitored spectrophotometrically at the absorbance peak of the basic form of the indicator. The ratio between the indicator and the buffer concentration was 50:[…], and the absorbance changes were kept within 0.1 units. The indicator/buffer pair used was red cresol/bicine (pH 8, 573 nm). Assay mixes contained 30 nM PfdUTPase, 50 μM dUTP, 5 mM MgCl2, 1 mg/mL BSA, and 100 mM KCl. Vmax and KMapp were calculated by fitting the resulting data to the integrated Michaelis–Menten equation.

[6] = tested on: P. falciparum K1, a chloroquine and pyrimethamine resistant strain; assay: In vitro antiplasmodial activity, parasites cultured in erythrocytes; type: cell-based; settings: Plasmodium falciparum, Erythrocyte, mean of two independent assays, read-out: In vitro assays, EC50 P.fal.
Description: as §1
(§3) Activity against P. falciparum K1 strain and cytotoxicity assessment against L6 cells (rat skeletal myoblast cells) was determined as previously reported.[9]

[7] = tested on: L6 cells (rat skeletal myoblast cells); assay: Cytotoxicity on rat L6 myoblasts; type: cell-based
Description: as §3

[8] = target: T2, human dUTPase (HsdUTPase); assay: Human dUTPase enzyme inhibition assay (dUTP hydrolysis, Ki); type: biochemical; settings: recombinant human dUTPase; read-out: Enzyme assay, Ki H. sap.
Description: as §1
Both recombinant P. falciparum and human dUTPases were expressed in E. coli BL21 (DE3) cells which had been transformed with the pET11Pfdut and pET3Hudut (kindly provided by P.O. Nyman, Lund University, Sweden) expression vectors, respectively. For dUTPase purification, the same procedure was used for both the human and the Plasmodium enzymes. Cell pellets from a 2.8 L IPTG-induced culture were resuspended in 70 mL of buffer A (20 mM MES, 50 mM NaCl, 1 mM DTT, pH 5.5) containing a protease inhibitor cocktail. […]
as §2, with “The indicator/buffer pair used was red cresol/bicine (pH 8, 573 nm). Assay mixes contained 30 nM PfdUTPase, 50 μM dUTP, 5 mM MgCl2, 1 mg/mL BSA, and 100 mM KCl. Vmax and KMapp were calculated by fitting the resulting data to the integrated Michaelis–Menten equation.” left out

[9] = recombinant PfdUTPase, 50 μM dUTP, pH 8
[10] = cytotoxicity on rat L6 myoblasts, mean of two independent assays, read-out: In vitro assays, EC50 L6 cells (Tox)

SMILES: O=c1ccn(CCCOC(c2ccccc2)(c2ccccc2)c2ccccc2)c(=O)[nH]1 [Compound 1a]
- Selectivity index (SI) for enzyme [KiHsdUTPase/KiPfdUTPase] (recombinant PfdUTPase [1]): 4
- EC50 [2]: 7.5 µM
- EC50 [3]: 34 µM

SMILES: O=c1ccn(CCCCOC(c2ccccc2)(c2ccccc2)c2ccccc2)c(=O)[nH]1 [Compound 1b]
- Ki [4]: > 1000 µM
- EC50 [2]: 4.9 µM
- EC50 [3]: 42 µM

SMILES: O=c1ccn(CCCCCOC(c2ccccc2)(c2ccccc2)c2ccccc2)c(=O)[nH]1 [Compound 1c]
- Ki [4]: > 1000 µM
- EC50 [2]: 1.1 µM
- EC50 [3]: 24 µM

SMILES: O=c1ccn(CCCCCCOC(c2ccccc2)(c2ccccc2)c2ccccc2)c(=O)[nH]1 [Compound 1d]
- EC50 [2]: 2.3 µM
- EC50 [3]: 44 µM

SMILES: O=c1ccn(CCCNC(c2ccccc2)(c2ccccc2)c2ccccc2)c(=O)[nH]1 [Compound 1e]
- EC50 [2]: 4.4 µM
- EC50 [3]: 107 µM

SMILES: O=c1ccn(CCCCNC(c2ccccc2)(c2ccccc2)c2ccccc2)c(=O)[nH]1 [Compound 1f]
- Selectivity index (SI) for enzyme [KiHsdUTPase/KiPfdUTPase] (recombinant PfdUTPase [1]): >1111
- Ki [4]: > 1000 µM
- EC50 [2]: 3.8 µM
- EC50 [3]: 33 µM

SMILES: O=c1ccn(CCCCCNC(c2ccccc2)(c2ccccc2)c2ccccc2)c(=O)[nH]1 [Compound 1g]
- Ki [4]: > 1000 µM
- EC50 [2]: 2.2 µM
- EC50 [3]: 39 µM

SMILES: O=c1ccn(CCCCCCNC(c2ccccc2)(c2ccccc2)c2ccccc2)c(=O)[nH]1 [Compound 1h]
- Selectivity index (SI) for enzyme [KiHsdUTPase/KiPfdUTPase] (recombinant PfdUTPase [1]): >556
- Ki [4]: > 1000 µM
- EC50 [2]: 1.1 µM
- EC50 [3]: 40 µM

SMILES: O=c1ccn([C@H]2C[C@H](O)[C@@H](COC(c3ccccc3)(c3ccccc3)c3ccccc3)O2)c(=O)[nH]1 [Compound 2a]
- Selectivity index (SI) for enzyme [KiHsdUTPase/KiPfdUTPase] (recombinant PfdUTPase [1]): 10
- EC50 [2]: 6 µM
- EC50 [3]: 192 µM
- Cell selectivity index (SI) [EC50 L6/EC50 P. falciparum] [3]: 32

SMILES: O=c1ccn([C@H]2C[C@H](O)[C@@H](CNC(c3ccccc3)(c3ccccc3)c3ccccc3)O2)c(=O)[nH]1 [Compound 2b]
- Selectivity index (SI) for enzyme [KiHsdUTPase/KiPfdUTPase] (recombinant PfdUTPase [1]): 232
- EC50 [2]: 4.5 µM

SMILES: O=c1ccn([C@H]2C[C@H](O)[C@@H](CNC(c3ccccc3)c3ccccc3)O2)c(=O)[nH]1 [Compound 2c]
- EC50 [3]: > 229 µM

SMILES: O=C(NCCCO)C(c1ccccc1)c1ccccc1 [Compound 3, N-(3-Hydroxypropyl)-2,2-diphenylacetamide]
- Ki (recombinant PfdUTPase [5]; [9]): > 100 µM
- EC50 [6]: 19 µM
- Cell selectivity index (SI) [EC50 L6/EC50 P. falciparum] [7]: 1.0
- EC50 [7, 10]: 18 µM

SMILES: O=C(NCCCO)C(c1ccccc1)(c1ccccc1)c1ccccc1 [Compound 4, N-(3-Hydroxypropyl)-2,2,2-triphenylacetamide]
- Ki (recombinant PfdUTPase [5]; [9]): 1000 µM
- EC50 [6]: 9.8 µM
- Cell selectivity index (SI) [EC50 L6/EC50 P. falciparum] [7]: 1.9
- EC50 [7, 10]: 19 µM

SMILES: O=C(c1ccccc1)n1c(=O)ccn(CCCNC(=O)C(c2ccccc2)(c2ccccc2)c2ccccc2)c1=O [Compound 6, 3-Benzoyl-(1-(3-(triphenylacetylamino)propyl)uracil)]
- Ki (recombinant PfdUTPase [5]; [9]): > 100 µM
- EC50 [6]: 6.7 µM
- Cell selectivity index (SI) [EC50 L6/EC50 P. falciparum] [7]: 1.4
- EC50 [7, 10]: 9 µM

SMILES: O=C(NCCCn1ccc(=O)[nH]c1=O)C(c1ccccc1)c1ccccc1 [Compound 7, 1-(3-(Diphenylacetylamino)propyl)uracil]
- Selectivity index (SI) for enzyme [KiHsdUTPase/KiPfdUTPase] (recombinant PfdUTPase [5]): 26
- Ki (recombinant PfdUTPase [5]; [9]): 11 µM
- Ki [8]: 286 µM
- EC50 [6]: 14 µM
- Cell selectivity index (SI) [EC50 L6/EC50 P. falciparum] [7]: 1.3
- EC50 [7, 10]: 18 µM
- melting point: 145 to 147 °C

- Ki (recombinant PfdUTPase [5]; [9]): 6.3 µM
- melting point: 154 to 156 °C
SMILES: O=C(NCCCn1ccc(=O)[nH]c1=O)C(c1ccccc1)(c1ccccc1)c1ccccc1 [Compound 8, 1-(3-(Triphenylacetylamino)propyl)uracil]

SMILES: O=C(O)CCCn1ccc(=O)[nH]c1=O [Compound 10, 1-(Carboxypropyl)uracil]
- Enzyme assay, Ki P.fal (recombinant PfdUTPase [5]; [9]): low affinity
- Ki (recombinant PfdUTPase [5]; [9]): > 100 µM
- EC50 [6]: 25 µM
- Cell selectivity index (SI) [EC50 L6/EC50 P. falciparum] [7]: 0.7
- EC50 [7, 10]: 18 µM
- melting point: 174 to 176 °C

- Ki (recombinant PfdUTPase [5]; [9]): 0.7 µM
SMILES: O=C(CCCn1ccc(=O)[nH]c1=O)NC(c1ccccc1)c1ccccc1 [Compound 11, 1-[3-(Benzhydrylaminocarbonyl)propyl]uracil]

- Ki (recombinant PfdUTPase [5]; [9]): 0.2 µM
SMILES: O=C(CCCn1ccc(=O)[nH]c1=O)NC(c1ccccc1)(c1ccccc1)c1ccccc1 [Compound 12, 1-[3-(Tritylaminocarbonyl)propyl]uracil]

SMILES: O=C(NC(c1ccccc1)c1ccccc1)[C@H]1O[C@@H](n2ccc(=O)[nH]c2=O)C[C@@H]1O [Compound 17, 2′,5′-Dideoxyuridine-5′-N-benzhydryl carboxamide]
- Selectivity index (SI) for enzyme [KiHsdUTPase/KiPfdUTPase] (recombinant PfdUTPase [5]): >12
- Ki (recombinant PfdUTPase [5]; [9]): 8.3 µM
- Ki [8]: > 100 µM
- EC50 [6]: > 5 µM
- EC50 [7, 10]: > 90 µM

SMILES: COc1cc([C@@H]2c3cc4c(cc3[C@H](O)[C@H]3COC(=O)[C@H]23)OCO4)cc(OC)c1OC [podophyllotoxin, reference compound]
- EC50 ([7]; Rattus norvegicus, L6, read-out: In vitro assays, EC50 L6 cells (Tox)): 0.012 µM
